Laboratory results from PubChem BioAssay (NCI).
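In this assay, cells in 96-well plates receive the compound at five concentrations for 48 hours. Endpoints are linearly interpolated between the surrounding concentrations. GI50 marks 50% less growth. The concentration for full growth arrest is given as TGI.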

Legend:
Assay in all cases: NCI tumour cell line growth inhibition, 48 h
[1] = system: SR leukemia
[2] = system: HCT-116 colon
[3] = system: SK-MEL-28 melanoma
[4] = system: NCI-H23 lung
[5] = system: NCI-H460 lung
[6] = system: UACC-62 melanoma
[7] = system: SF-295 CNS
[8] = system: HOP-62 NSCLC
[9] = system: RXF 393 renal
[10] = system: HT29 colon
[11] = system: HL-60(TB) leukemia
[12] = system: U251 CNS
[13] = system: A498 renal
[14] = system: ACHN renal
[15] = system: SNB-19 CNS
[16] = system: IGROV1 ovarian
[17] = system: DMS 114 small cell lung
[18] = system: UO-31 renal
[19] = system: SNB-78 CNS
[20] = system: HOP-92 NSCLC
[21] = system: A549 NSCLC
[22] = system: UACC-257 melanoma
[23] = system: M14 melanoma
[24] = system: OVCAR-5 ovarian
[25] = system: KM12 colon
[26] = system: OVCAR-8 ovarian
[27] = system: M19-MEL melanoma
[28] = system: EKVX NSCLC
[29] = system: SK-OV-3 ovarian
[30] = system: TK-10 renal
[31] = system: NCI-H226 lung
[32] = system: MALME-3M melanoma
[33] = system: SF-539 CNS
[34] = system: LOX IMVI melanoma
[35] = system: LXFL 529 NSCLC
[36] = system: K-562 leukemia
[37] = system: RPMI-8226 leukemia
[38] = system: SN12C renal
[39] = system: COLO 205 colon
[40] = system: DMS 273 small cell lung
[41] = system: SF-268 CNS
[42] = system: OVCAR-3 ovarian
[43] = system: SK-MEL-5 melanoma
[44] = system: HCT-15 colon
[45] = system: SW-620 colon
[46] = system: DLD-1 colon
[47] = system: CAKI-1 renal
[48] = system: OVCAR-4 ovarian
[49] = system: NCI-H522 lung
[50] = system: HCC-2998 colon
[51] = system: SK-MEL-2 melanoma
[52] = system: 786-0 renal
[53] = system: HOP-18 NSCLC
[54] = system: SNB-75 CNS
[55] = system: KM20L2 colon
[56] = system: CCRF-CEM leukemia
[57] = system: MOLT-4 leukemia

Structure (SMILES): COc1cc(O)c2c(c1C)C(C)(O)c1c(C)coc1C2=O (configuration not stated)
- TGI [1]: > 100 µM
- TGI [2]: > 100 µM
- TGI [3]: > 100 µM
- TGI [4]: > 100 µM
- TGI [5]: > 100 µM
- TGI [6]: > 100 µM
- TGI [7]: > 100 µM
- TGI [8]: > 100 µM
- TGI [9]: > 100 µM
- TGI [10]: > 100 µM
- TGI [11]: > 100 µM
- TGI [12]: > 100 µM
- TGI [13]: > 100 µM
- TGI [14]: > 100 µM
- TGI [15]: > 100 µM
- TGI [16]: > 100 µM
- TGI [17]: > 100 µM
- TGI [18]: > 100 µM
- TGI [19]: > 100 µM
- TGI [20]: > 100 µM
- TGI [21]: > 100 µM
- TGI [22]: > 100 µM
- TGI [23]: > 100 µM
- TGI [24]: > 100 µM
- TGI [25]: > 100 µM
- TGI [26]: > 100 µM
- TGI [27]: > 100 µM
- TGI [28]: > 100 µM
- TGI [29]: > 100 µM
- TGI [30]: > 100 µM
- TGI [31]: > 100 µM

Structure (SMILES): [CH3][Ge]([CH3])([CH2]CC#N)[S]c1ccccc1
- GI50 [32]: 73.7 µM
- TGI [32]: > 100 µM
- GI50 [33]: 12.9 µM
- TGI [33]: 27.8 µM
- GI50 [34]: 4.36 µM
- TGI [34]: 16.9 µM
- GI50 [3]: 16.5 µM
- TGI [3]: 65.1 µM
- GI50 [35]: 13.5 µM
- TGI [35]: 27.5 µM
- GI50 [36]: 8 µM
- TGI [36]: > 100 µM
- GI50 [4]: 18.3 µM
- TGI [4]: 46.4 µM
- GI50 [5]: 16.3 µM
- TGI [5]: 29.8 µM
- GI50 [6]: 13.5 µM
- TGI [6]: 29.8 µM
- GI50 [7]: 16.5 µM
- TGI [7]: 41.5 µM
- GI50 [37]: 16.2 µM
- TGI [37]: 53.2 µM
- GI50 [38]: 15.2 µM
- TGI [38]: 31.6 µM
- GI50 [8]: 14.6 µM
- TGI [8]: 38.1 µM
- GI50 [9]: 11.8 µM
- TGI [9]: 27 µM
- GI50 [39]: 17.5 µM
- TGI [39]: 52.4 µM
- GI50 [40]: 6.1 µM
- TGI [40]: 29.5 µM
- GI50 [41]: 18.6 µM
- TGI [41]: 51.6 µM
- GI50 [42]: 12.3 µM
- TGI [42]: 29.1 µM
- GI50 [43]: 26 µM
- TGI [43]: 75.9 µM
- GI50 [10]: 17.8 µM
- TGI [10]: 32.9 µM
- GI50 [44]: 15 µM
- TGI [44]: 28.2 µM
- GI50 [45]: 14.1 µM
- TGI [45]: 29.4 µM
- GI50 [11]: 2.2 µM
- TGI [11]: 11.9 µM
- GI50 [12]: 9.85 µM
- TGI [12]: 22.6 µM
- GI50 [14]: 18 µM
- TGI [14]: 33.1 µM
- GI50 [15]: 18 µM
- TGI [15]: 37.3 µM
- GI50 [16]: 0.371 µM
- TGI [16]: 1.28 µM
- GI50 [46]: 14.6 µM
- TGI [46]: 31.6 µM
- GI50 [47]: 21.3 µM
- TGI [47]: 43.7 µM
- GI50 [48]: 18.6 µM
- TGI [48]: 50 µM
- GI50 [18]: 10.5 µM
- TGI [18]: 22.3 µM
- GI50 [19]: 13.5 µM
- TGI [19]: 61.8 µM
- GI50 [20]: 31.2 µM
- TGI [20]: 79.7 µM
- GI50 [21]: 2.19 µM
- TGI [21]: > 100 µM
- GI50 [22]: 22.7 µM
- TGI [22]: 70.7 µM
- GI50 [23]: 18.8 µM
- TGI [23]: 43 µM
- GI50 [24]: 17.8 µM
- TGI [24]: 39.5 µM
- GI50 [25]: 14.6 µM
- TGI [25]: 33.5 µM
- GI50 [49]: 3.31 µM
- TGI [49]: 11.1 µM
- GI50 [26]: 11.5 µM
- TGI [26]: 46.5 µM
- GI50 [50]: 0.0385 µM
- TGI [50]: > 100 µM
- GI50 [51]: 14.7 µM
- TGI [51]: 39.6 µM
- GI50 [52]: 17.1 µM
- TGI [52]: 32.8 µM
- GI50 [27]: 16 µM
- TGI [27]: 48 µM
- GI50 [53]: > 100 µM
- TGI [53]: > 100 µM
- GI50 [54]: 23.4 µM
- TGI [54]: 74 µM
- GI50 [28]: 7.28 µM
- TGI [28]: 66.2 µM
- GI50 [55]: 21.6 µM
- TGI [55]: 47.9 µM
- GI50 [56]: 1.38 µM
- TGI [56]: 4.35 µM
- GI50 [29]: 21.7 µM
- TGI [29]: 55.9 µM
- GI50 [30]: 24.4 µM
- TGI [30]: 72.8 µM
- GI50 [31]: 13.1 µM
- TGI [31]: 33.4 µM
- GI50 [57]: 3.58 µM
- TGI [57]: 17.6 µM
